This is an account of results in patent publication US9585389B2, “Microbicidal composition” (Dow Global Technologies LLC, priority 2013, dated 2017).

Data set [1] in a line: Stability Testing of phenoxyethanol/surfactant solutions. The data set is classed as physicochemical. Particulars: 33% phenoxyethanol in 70% isopropanol with surfactant, PE:Surfactant 1:27. Here is the method:
A solution of phenoxyethanol in 70% (v/v) isopropanol was made and diluted with surfactant to give the desired ratios of biocide to surfactant. Additional 70% isopropanol was added as needed to give a 33 wt % solution of phenoxyethanol. The samples were split into three vials. One vial was stored at room temperature, one was stored at 40 C and one was stored at 50 C. […] Samples that were cloudy or highly discolored were determined to be unstable.

For data set [2], the system named is Pseudomonas aeruginosa ATCC #15442. Nature of the data set: MIC / synergy index test in 96 well microtiter plates. Particulars: 1/10 TSB; for MIC: Pseudomonas aeruginosa, ATCC15442, 24 h, Phenoxyethanol alone, read-out: CB (MIC of compound B alone). Format: cell-based. Here is the method:
(§1) Surfactants and biocides were evaluated for synergy by determining the synergy index (S.I.) of the combination. Synergy index was calculated based on minimum inhibitory concentrations (MIC) of two antimicrobial compounds (A and B) alone and in combinations. The tests organisms were Gram negative bacteria (Pseudomonas aeruginosa ATCC #15442),
(§2) Gram positive bacteria (Staphylococcus aureus ATCC #6538), yeast (Candida albicans ATCC#10203) and mold (Aspergillus niger ATCC#16404). Contact time for the bacteria was 24 and 48 hours, yeast was 48 and 72 hrs, and 3 and 7 days for mold. The test was carried out in 96 well microtiter plates. • Surf. A R^1O(CH2CH(CH3)o)5(CH2CH2O)9H, where R^1 is 2-ethylhexyl • Surf. D R^2O(CH2CH(CH3)o)3(CH2CH2O)5H • Surf. E R^2O(CH2CH(CH3)o)3(CH2CH2O)7H • In Surf. D and Surf. E, R^2 is a mixture of C8-C14 linear alkyl groups (70% C8-C10 linear alkyl and 30% C12-C14 linear alkyl)
(§3) The pH of the Triptic soy broth was 7.3 and the Potato dextrose broth was 5.1.
(§4) SI is calculated as follows: Ca/CA+Cb/CB=Synergy Index (“SI”)
(§5) Wherein: • CA=concentration of compound A in ppm, acting alone, which produced an end point (MIC of Compound A). • Ca=concentration of compound A in ppm, in the mixture, which produced an end point. • CB=concentration of compound B in ppm, acting alone, which produced an end point (MIC of Compound B). • Cb=concentration of compound B in ppm, in the mixture, which produced an end point. When the sum of Ca/CA and Cb/CB is greater than one, antagonism is indicated.

Data set [3] concerns Staphylococcus aureus ATCC #6538. Described as above. Format: cell-based. The following applies: 1/10 TSB; for MIC: Staphylococcus aureus, ATCC6538, 24 h, Phenoxyethanol alone. Here is the method:
as §1, §2, §3, §4, §5

Data set [4] concerns Aspergillus niger ATCC#16404. Described as above. Format: cell-based. Particulars: ATCC16404, read-out: CB (MIC of compound B alone). Here is the method: as §1, §2, §3, §4, §5
Data set [5] concerns Candida albicans ATCC#10203. Described as above. The data set is classed as cell-based. The following applies: ATCC10203, 48 h, read-out: CB (MIC of compound B alone). Here is the method:
as §1, §2, §3, §4, §5

Like-named read-outs stand apart in the source and are kept apart here. Some results are limits rather than exact numbers.

With POLYSORBATE 20, the “Stability (appearance)” value in data set [1] (Day 2, 40° C.) is “Slightly”; in data set [1] (Day 2, 50° C.), “Slightly”; in data set [1] (Day 7, 40° C.), “Slightly”; in data set [1] (Day 7, 50° C.), “Slightly”.
With `CCCCC(CC)COCC(C)OCC(C)OCC(C)OCC(C)OCC(C)OCCOCCOCCOCCOCCOCCOCCOCCOCCO` (centres unmarked) [Surf. A, R^1O(CH2CH(CH3)o)5(CH2CH2O)9H, where R^1 is 2-ethylhexyl], the “CA (MIC of compound A alone)” value in data set [2] (Surf. A alone, 24 hrs, inoculum 8.134E+07CFU/ml) is reported as more than 20000 ppm; in data set [3] (Surf. A alone, 24 hrs, inoculum 1.156E-+06CFU/ml) it was more than 20000 ppm.
Usually MIC stands for the lowest concentration that inhibits growth of the organism. For `OCCOc1ccccc1` [Phenoxyethanol, 2-phenoxy-1-ethanol], the MIC in data set [4] turned out to be 4000 µg/mL; in data set [5], 4000 µg/mL; in data set [2] (series with Surf. A, inoculum 8.134E+07CFU/ml), 5000 µg/mL; in data set [2] (series with Surf. D, inoculum 1.16E+05CFU/ml), 4000 µg/mL; in data set [2] (series with Surf. E, inoculum 5.727E+07CFU/ml) it was 4000 µg/mL; in data set [3] (series with Surf. A, inoculum 1.156E-+06CFU/ml, read-out: CB (MIC of compound B alone)), 8000 µg/mL. Besides, the MIC stood at 10000 µg/mL in data set [3] (series with Surf. D, inoculum 1.808E+05, read-out: CB (MIC of compound B alone)) and 8000 µg/mL in data set [3] (series with Surf. E, inoculum 1.808E+06CFU/ml, read-out: CB (MIC of compound B alone)).
